How the values were obtained:
[1] = Absorption and fluorescence spectra, quantum yield, energy transfer; assay type: physicochemical; settings: for φ (fluorescence quantum yield): uncertainty ± 15%; for λmax^abs: one-photon absorption; for λmax^t1: one-photon emission
Protocol: Absorption spectra were recorded using the Hewlett-Packard 8453 diode array spectrophotometer and fluorescence spectra were measured using the Amico-Bowman series 2 luminescence spectrometer a 1 cm standard quartz cell. The fluorescence quantum yield was determined using coumarin 307 and rhodamine B as references according to the literature method (J. N. Demas, G. A. Crosby, J. Phys. Chem. 1971, 75, 991).
(hereinafter, ‘ACCu2’), a compound of [Chemical Formula 12] (hereinafter, ‘FL’) and a compound of [Chemical Formula 13] (hereinafter, ‘IR’) in 1,4-dioxane, DMF, ethanol, EtOH/HEPES (9:1) and HEPES buffer ([HEPES]=20 mM, pH 7.0). Excitation wavelength was 420 nm. The solubility of ACCu2 in HEPES buffer ([HEPES]=20 mM, pH 7.0) as determined by the fluorescence method described in the literature (Kim, H. M.; Choo, H. J.; Jung, S. Y.; Ko, Y. G.; Park, W. H.; Jeon, S. J.; Kim, C. H.; Joo, T. H.; Cho, B. R. Chem Bio Chem 2007, 8, 553) was 8.0 μM, which was sufficient to stain cells.
To assess the origin of the spectral changes, the energy transfer efficiency (ETE) was calculated using Equation (1). The ETE was 93.4%.
In Equation (1), AIR and AIR′ are the absorbances of the IR moiety and IR, respectively, and FIR and FIR′ are the emission intensities of the IR moiety and IR, respectively, upon excitation at 373 nm.
The antenna effect in the one-photon (OP) (or TP) mode was 3.0 (or 3.1). The antenna effect was calculated by dividing the area of emission from the FL moiety upon excitation of the IR moiety at 373 nm (or 750 nm in the TP mode) by that collected from the direct excitation of FL at 461 nm (or 880 nm in the […]).

[2] = Two-photon action cross section; assay type: physicochemical; settings: EtOH/HEPES (9/1 v/v, pH 7.0)
Protocol: Referring to FIG. 4(a), the Φδmax value of ACCu2 in EtOH/HEPES (9/1 v/v, pH 7.0) buffer was 32 GM at 880 nm, while those for FL and IR were 32 GM at 880 nm and 46 GM at 750 nm. The lower Φδmax value of ACCu2 at 750 nm than that of IR is because of decreased fluorescence resonance energy transfer (FRET) from IR to FL and it allows to obtain bright TPM images of cells and ^.tissues labeled with ACCu2.
The two-photon cross section (δ) was determined by the fe tosecond (fs) fluorescence measurement technique described in the literature (S. K. Lee, W. J. Yang, J. J. Choi, C. H. Kim, S.-J. Jeon, B. R. Cho, Org. Lett 2005, 7, 323-326.), ACCu2 was dissolved in 20 mM HEPES buffer (pH 7.0) to a concentration of 3.0×10^−6 M and then two-photon induced fluorescence intensity was measured at 740-940 nm using rhodamine 6G as a reference, whose two-photon property has been well characterized. The intensities of two-photon induced fluorescence of the reference and the sample were determined at the same excitation wavelength.
The two-photon cross section can be calculated from equation (3). δ=δr(SsΦrΦrcr)/(SrΦsΦscs) Equation (3)
wherein s and r stand for the sample, i.e., ACCu2, and the reference, respectively. S denotes the intensity of the signal collected using a CCD detector, Φ is the fluorescence quantum yield, Φ is the overall fluorescence collection efficiency of the experimental apparatus, c is the number density of molecules in solution, and δr is the two-photon cross section of the reference molecule.

| φ (fluorescence quantum yield) ([1]; 1,4-Dioxane (0.164)) | φ (fluorescence quantum yield) ([1]; DMF (0.386)) | φ (fluorescence quantum yield) ([1]; EtOH (0.654)) | φ (fluorescence quantum yield) ([1]; EtOH/HEPES (9:1)) | φ (fluorescence quantum yield) ([1]; HEPES buffer 20 mM, pH 7.0) | λmax^abs ([1]; 1,4-Dioxane (0.164)) | λmax^abs ([1]; DMF (0.386)) | λmax^abs ([1]; EtOH (0.654)) | λmax^abs ([1]; EtOH/HEPES (9:1)) | λmax^abs ([1]; HEPES buffer 20 mM, pH 7.0) | λmax^t1 ([1]; 1,4-Dioxane (0.164)) | λmax^t1 ([1]; DMF (0.386)) | λmax^t1 ([1]; EtOH (0.654)) | λmax^t1 ([1]; EtOH/HEPES (9:1)) | λmax^t1 ([1]; HEPES buffer 20 mM, pH 7.0) | Φδmax (two-photon action cross section) ([2]; at 880 nm) | Φδmax (two-photon action cross section) ([2]; at 750 nm) | Structure (SMILES) |
| --- | --- | --- | --- | --- | --- | --- | --- | --- | --- | --- | --- | --- | --- | --- | --- | --- | --- |
| 0.77 | 0.29 | 0.25 | 0.15 | 0.0045 | 438 nm | 454 nm | 457 nm | 461 nm | 452 nm | 536 nm | 576 nm | 582 nm | 587 nm | 590 nm | 32 GM |  | CN(C)c1ccc2cc3cc(C(=O)NCc4ccc(C(=O)O)cn4)c(=O)oc3cc2c1 [FL] |
| 0.080 | 0.070 | 0.18 | 0.62 | 1.00 | 367 nm | 366 nm | 372 nm | 373 nm | 375 nm | 445 nm | 448 nm | 451 nm | 460 nm | 468 nm |  | 46 GM | COCCOCCOCCOc1ccc2c(ccc3cc(C(=O)N4CCNCC4)c(=O)oc32)c1 [IR] |
